ChEMBL document CHEMBL3046658, “Fate of cyromazine applied in nutrient solution to a gerbera (Gerbera jamesonii) crop grown in a closed hydroponic system” (Crop Prot, 2007)

Key:
Format in all cases: ADME
[1] = tested on: Flower; assay: Drug recovery in flower of Gerbera jamesonii grown in closed hydroponic system at 45 g applied through nutrient solution measured on day 56 post-treatment by gas chromatographic analysis; settings: in vivo, other
[2] = tested on: Flower; assay: Drug recovery in flower of Gerbera jamesonii grown in closed hydroponic system at 22.5 g applied through nutrient solution measured on day 56 post-treatment by gas chromatographic analysis; settings: in vivo, other
[3] = tested on: Leaf; assay: Drug recovery in leaf of Gerbera jamesonii grown in closed hydroponic system at 45 g applied through nutrient solution measured on day 56 post-treatment by gas chromatographic analysis; settings: in vivo, other
[4] = tested on: Leaf; assay: Drug recovery in leaf of Gerbera jamesonii grown in closed hydroponic system at 22.5 g applied through nutrient solution measured on day 56 post-treatment by gas chromatographic analysis; settings: in vivo, other
[5] = tested on: Root; assay: Drug recovery in root of Gerbera jamesonii grown in closed hydroponic system at 45 g applied through nutrient solution measured on day 56 post-treatment by gas chromatographic analysis; settings: in vivo, other
[6] = tested on: Root; assay: Drug recovery in root of Gerbera jamesonii grown in closed hydroponic system at 22.5 g applied through nutrient solution measured on day 56 post-treatment by gas chromatographic analysis; settings: in vivo, other
[7] = tested on: Leaf; assay: Drug level in leaf of Gerbera jamesonii grown in closed hydroponic system assessed per fresh weight at 375 mg/l applied through nutrient solution measured on day 50 post-treatment in summer by gas chromatographic analysis; settings: other
[8] = tested on: Flower; assay: Drug level in flower of Gerbera jamesonii grown in closed hydroponic system assessed per fresh weight at 750 mg/l applied through nutrient solution measured on day 121 post-treatment in winter by gas chromatographic analysis; settings: other
[9] = tested on: Flower; assay: Drug level in flower of Gerbera jamesonii grown in closed hydroponic system assessed per fresh weight at 375 mg/l applied through nutrient solution measured on day 121 post-treatment in winter by gas chromatographic analysis; settings: other
[10] = tested on: Flower; assay: Drug level in flower of Gerbera jamesonii grown in closed hydroponic system assessed per fresh weight at 750 mg/l applied through nutrient solution measured on day 56 post-treatment in winter by gas chromatographic analysis; settings: other
[11] = tested on: Flower; assay: Drug level in flower of Gerbera jamesonii grown in closed hydroponic system assessed per fresh weight at 375 mg/l applied through nutrient solution measured on day 56 post-treatment in winter by gas chromatographic analysis; settings: other
[12] = tested on: Flower; assay: Drug level in flower of Gerbera jamesonii grown in closed hydroponic system at 750 mg/l applied through nutrient solution measured 48 hr post-treatment in winter by gas chromatographic analysis; settings: other
[13] = tested on: Flower; assay: Drug level in flower of Gerbera jamesonii grown in closed hydroponic system at 375 mg/l applied through nutrient solution measured 48 hr post-treatment in winter by gas chromatographic analysis; settings: other
[14] = tested on: Leaf; assay: Drug level in leaf of Gerbera jamesonii grown in closed hydroponic system assessed per fresh weight at 750 mg/l applied through nutrient solution measured on day 121 post-treatment in winter by gas chromatographic analysis; settings: other
[15] = tested on: Leaf; assay: Drug level in leaf of Gerbera jamesonii grown in closed hydroponic system assessed per fresh weight at 375 mg/l applied through nutrient solution measured on day 121 post-treatment in winter by gas chromatographic analysis; settings: other
[16] = tested on: Leaf; assay: Drug level in leaf of Gerbera jamesonii grown in closed hydroponic system assessed per fresh weight at 750 mg/l applied through nutrient solution measured on day 56 post-treatment in winter by gas chromatographic analysis; settings: other
[17] = tested on: Leaf; assay: Drug level in leaf of Gerbera jamesonii grown in closed hydroponic system assessed per fresh weight at 375 mg/l applied through nutrient solution measured on day 56 post-treatment in winter by gas chromatographic analysis; settings: other
[18] = tested on: Root; assay: Drug level in root of Gerbera jamesonii grown in closed hydroponic system assessed per fresh weight at 750 mg/l applied through nutrient solution measured on day 121 post-treatment in winter by gas chromatographic analysis; settings: other
[19] = tested on: Root; assay: Drug level in root of Gerbera jamesonii grown in closed hydroponic system assessed per fresh weight at 375 mg/l applied through nutrient solution measured on day 121 post-treatment in winter by gas chromatographic analysis; settings: other
[20] = tested on: Root; assay: Drug level in root of Gerbera jamesonii grown in closed hydroponic system assessed per fresh weight at 750 mg/l applied through nutrient solution measured on day 17 post-treatment in winter by gas chromatographic analysis; settings: other
[21] = tested on: Root; assay: Drug level in root of Gerbera jamesonii grown in closed hydroponic system assessed per fresh weight at 375 mg/l applied through nutrient solution measured on day 17 post-treatment in winter by gas chromatographic analysis; settings: other

Nc1nc(N)nc(NC2CC2)n1 [CYROMAZINE]
Drug recovery [1]: 27%
Drug recovery [2]: 44%
Drug recovery [3]: 27%
Drug recovery [4]: 44%
Drug recovery [5]: 27%
Drug recovery [6]: 44%
Drug uptake [7]: 65.8 mg/kg
Drug uptake [8]: 2.2 mg/kg
Drug uptake [9]: 1.9 mg/kg
Drug uptake [10]: 48.2 mg/kg
Drug uptake [11]: 32.3 mg/kg
Drug uptake [12]: Not Active
Drug uptake [13]: Not Active
Drug uptake [14]: 61.8 mg/kg
Drug uptake [15]: 51.5 mg/kg
Drug uptake [16]: 129.7 mg/kg
Drug uptake [17]: 105 mg/kg
Drug uptake [18]: 15.1 mg/kg
Drug uptake [19]: 12.2 mg/kg
Drug uptake [20]: 93 mg/kg
Drug uptake [21]: 105 mg/kg
